pIC50: −log10 of the molar value.
Target: T1, human MC5R (hMC5R) (Homo sapiens, UniProt P33032)
T1 construct: purchased Perkin Elmer RBXMC5M400UA
Test: Human MC5R radioligand binding assay (membranes, [125I] NDP-MSH displacement)
Settings: hMC5R binding; tested as trifluoroacetate or hydrochloride salts, or free bases; read-out: MC5R radioligand IC50
Method in brief: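 Frozen human MC5R membranes incubated with test compound and in-house iodogen-labeled, HPLC-purified [125I]NDP-MSH for 1 hr at 37° C. Binding measured as displacement of the radioligand.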

T1 sequence (P33032 whole entry): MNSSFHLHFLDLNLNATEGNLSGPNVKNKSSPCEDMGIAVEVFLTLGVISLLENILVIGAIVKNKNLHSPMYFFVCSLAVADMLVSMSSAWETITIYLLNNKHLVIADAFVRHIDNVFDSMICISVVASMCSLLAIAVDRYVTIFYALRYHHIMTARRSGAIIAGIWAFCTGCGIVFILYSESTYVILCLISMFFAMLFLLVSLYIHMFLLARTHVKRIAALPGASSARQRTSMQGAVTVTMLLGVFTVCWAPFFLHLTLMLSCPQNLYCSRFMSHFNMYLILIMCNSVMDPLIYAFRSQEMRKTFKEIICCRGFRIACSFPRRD

Row | SMILES | pIC50
1 | O=C(NC[C@@H]1CCN(CC(c2ccccc2)c2ccccc2)C(=O)[C@H](CCN2CCCCC2)N1)c1ccc2cc(F)ccc2c1 [Compound 379, N-(((3S,5S)-1-(2,2-diphenylethyl)-2-oxo-3-(2-(piperidin-1-yl)ethyl)-1,4-diazepan-5-yl)methyl)-6-fluoro-2-naphthamide] | > 8.00
2 | O=C(/C=C/c1ccc(Cl)cc1)NC[C@@H]1CCN(CC(c2ccccc2)c2ccccc2)C(=O)[C@H](CCN2CCCC2)N1 [Compound 380, (E)-3-(4-chlorophenyl)-N-(((3S,5S)-1-(2,2-diphenylethyl)-2-oxo-3-(2-(pyrrolidin-1-yl)ethyl)-1,4-diazepan-5-yl)methyl)acrylamide] | > 7.00
3 | CC(C)NCC[C@@H]1N[C@H](CNC(=O)/C=C/c2ccc(Cl)cc2)CCN(CC(c2ccccc2)c2ccccc2)C1=O [Compound 381, (E)-3-(4-chlorophenyl)-N-(((3S,5S)-1-(2,2-diphenylethyl)-3-(2-(isopropylamino)ethyl)-2-oxo-1,4-diazepan-5-yl)methyl)acrylamide] | > 7.00
4 | CC(C)NCC[C@@H]1N[C@H](CNC(=O)c2ccc3ccccc3c2)CCN(CC(c2ccccc2)c2ccccc2)C1=O [Compound 382, N-(((3S,5S)-1-(2,2-diphenylethyl)-3-(2-(isopropylamino)ethyl)-2-oxo-1,4-diazepan-5-yl)methyl)-2-naphthamide] | > 6.00
5 | CC(C)NCC[C@@H]1N[C@H](CNC(=O)c2ccc(Cl)c(Cl)c2)CCN(CC(c2ccccc2)c2ccccc2)C1=O [Compound 383, 3,4-dichloro-N-(((3S,5S)-1-(2,2-diphenylethyl)-3-(2-(isopropylamino)ethyl)-2-oxo-1,4-diazepan-5-yl)methyl)benzamide] | > 6.00
6 | CC1CCCC(C)C1CN1CC[C@@H](CNC(=O)c2ccc3ccccc3c2)N[C@@H](CCCN)C1=O (stereo partly drawn) [Compound 384, N-(((3S,5S)-3-(3-aminopropyl)-1-((2,6-dimethylcyclohexyl)methyl)-2-oxo-1,4-diazepan-5-yl)methyl)-2-naphthamide] | > 5.00
7 | CC[C@H](CN1CC[C@@H](CNC(=O)c2ccc3ccccc3c2)N[C@@H](CCCN)C1=O)c1ccccc1 [Compound 385, N-(((3S,5S)-3-(3-aminopropyl)-2-oxo-1-((S)-2-phenylbutyl)-1,4-diazepan-5-yl)methyl)-2-naphthamide] | > 6.00
8 | CC1CC(C)CC(CN2CC[C@@H](CNC(=O)c3ccc(Cl)c(Cl)c3)N[C@@H](CCN3CCCCC3)C2=O)C1 (stereo partly drawn) [Compound 386, 3,4-dichloro-N-(((3S,5S)-1-((3,5-dimethylcyclohexyl)methyl)-2-oxo-3-(2-(piperidin-1-yl)ethyl)-1,4-diazepan-5-yl)methyl)benzamide] | > 7.00
9 | CC1CC(C)CC(CN2CC[C@@H](CNC(=O)c3ccc(Cl)c(Cl)c3)N[C@@H](CCNC(C)C)C2=O)C1 (stereo partly drawn) [Compound 387, 3,4-dichloro-N-(((3S,5S)-1-((3,5-dimethylcyclohexyl)methyl)-3-(2-(isopropylamino)ethyl)-2-oxo-1,4-diazepan-5-yl)methyl)benzamide] | > 6.00
10 | CC(C)C(CN1CC[C@@H](CNC(=O)c2ccc3ccccc3c2)N[C@@H](CCN)C1=O)c1ccccc1 (stereo partly drawn) [Compound 388, N-(((3S,5S)-3-(2-aminoethyl)-1-(3-methyl-2-phenylbutyl)-2-oxo-1,4-diazepan-5-yl)methyl)-2-naphthamide] | > 5.00
11 | CC[C@H](CN1CC[C@@H](CNC(=O)c2ccc3ccccc3c2)N[C@@H](CCN)C1=O)c1ccccc1 [Compound 389, N-(((3S,5S)-3-(2-aminoethyl)-2-oxo-1-((S)-2-phenylbutyl)-1,4-diazepan-5-yl)methyl)-2-naphthamide] | > 6.00
12 | CC[C@@H](CN1CC[C@@H](CNC(=O)c2ccc3ccccc3c2)N[C@@H](CCCN)C1=O)c1ccccc1 [Compound 390, N-(((3S,5S)-3-(3-aminopropyl)-2-oxo-1-((R)-2-phenylbutyl)-1,4-diazepan-5-yl)methyl)-2-naphthamide] | > 5.00

Source: patent publication US8008291B2 (Mimetica Pty Ltd, priority 2008, dated 2011)
